Measured values as given in patent publication US7919506B2, “Dibenzyl amine compounds and derivatives” (Pfizer Inc., priority 2006, dated 2011).

- melting point: 103 to 104 °C
SMILES: COC1(c2ccc(C(F)(F)F)cc2CN(Cc2cc(C(F)(F)F)cc(C(F)(F)F)c2)c2nnn(C)n2)CCCCCC1 [Example 52, N-(2-(1-methoxycycloheptyl)-5-(trifluoromethyl)benzyl)-N-(3,5-bis(trifluoromethyl)benzyl)-2-methyl-2H-tetrazol-5-amine]
